Laboratory results as given in patent US20240279241A1, “PYRIDO[4,3-D]PYRIMIDINE COMPOUNDS CAPABLE OF INHIBITING KRAS MUTANT PROTEINS” (Redx Pharma PLC, priority 2021, published 2024).

Legend:
Format in all cases: biochemical
KRAS G12D = target: T1, KRAS G12D (Homo sapiens, UniProt P01116, G12D); assay: HTRF nucleotide exchange assay (NEA), KRAS G12D; conditions: recombinant human KRAS G12D aa1-188, 2 nM; lowest class = % inhibition at 10 μM
T1 construct: Recombinant human RAS protein (2 nM)
Outline: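 Compound binding to KRAS G12D was measured by HTRF nucleotide exchange. Recombinant human KRAS G12D (aa1-188, N-terminal 6×His-tag, 2 nM) and 2 nM Europium anti-6×His antibody were combined with compound in 5 uL assay buffer in 384-well plates for 60 minutes at room temperature, then 5 ul of 200 nM EDA-GTP-DY647P1 was added for 30 minutes before time-resolved fluorescence reading.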

KRAS WT = target: T2, KRAS WT (Homo sapiens, UniProt P01116); assay: HTRF nucleotide exchange assay (NEA), KRAS WT
T2 construct: Recombinant human RAS protein (2 nM); aa1-188 KRAS WT
Outline: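 TR-FRET readout; IC50 by four-parameter logistic fit, ≥2 replicates. Protein: N-terminal 6×His KRAS aa1-188, 2 nM for WT/G13D, 4 nM for G12C/G12S, with 2 nM Eu anti-His. Compound pre-incubation 60 min RT, then fluorescent GTP analog (added as 200 nM solution), 30 min RT.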

KRAS G12S = target: T3, KRAS G12S (Homo sapiens, UniProt P01116, G12S); assay: HTRF nucleotide exchange assay (NEA), KRAS G12S
T3 construct: 4 nM KRAS; aa1-188 containing the G12V, G12C, G12A or G12S amino acid substitution
Procedure: (§1) The capacity of compounds to bind KRAS G12D, other KRAS mutants and wildtype RAS isoforms was quantified using a HTRF nucleotide exchange assay. Recombinant human RAS protein (2 nM; aa1-188 KRAS WT, HRAS WT, NRAS WT, or KRAS containing the containing the G12D, G13D or Q61H amino acid substitutions, or 4 nM KRAS; aa1-188 containing the G12V, G12C, G12A or G12S amino acid substitution, an N-terminal 6×His-tag and leader sequence), and 2 nM Europium-labeled anti-6×His antibody were mixed in assay buffer (10 mM HEPES pH7.3, 150 mM NaCl, 5 mM MgCl2, 0.05% BSA, 0.0025% NP-40 and 100 mM KF) with various concentrations of compound in a 384-well plate and a volume of 5 uL. After a 60-minute incubation at room temperature, 5 ul of 200 nM EDA-GTP-DY647P1 (diluted in assay buffer) was added to the plate. Following 30-minute incubation at room temperature, time-resolved fluorescence was measured on a PerkinElmer Envision plate reader. DMSO (0.3%) and unlabeled […] (1 μM) or equivalent tool compound were used to generate the Max and Min assay signals, respectively. Data was analysed using a four-parameter logistic model to calculate IC50 values, with at least two independent replicates were performed for each compound.

KRAS G12A = target: T4, KRAS G12A (Homo sapiens, UniProt P01116, G12A); assay: HTRF nucleotide exchange assay (NEA), KRAS G12A
T4 construct: 4 nM KRAS; aa1-188 containing the G12V, G12C, G12A or G12S amino acid substitution
Procedure: as §1

KRAS G13D = target: T5, KRAS G13D (Homo sapiens, UniProt P01116, G13D); assay: HTRF nucleotide exchange assay (NEA), KRAS G13D; conditions: recombinant human KRAS G13D aa1-188, 2 nM; lowest class = % inhibition at 10 μM
T5 construct: Recombinant human RAS protein (2 nM); aa1-188 KRAS WT
Procedure: as §1

KRAS G12C = target: T6, KRAS G12C (Homo sapiens, UniProt P01116, G12C); assay: HTRF nucleotide exchange assay (NEA), KRAS G12C
T6 construct: 4 nM KRAS; aa1-188 containing the G12V, G12C, G12A or G12S amino acid substitution
Procedure: as §1

KRAS G12V = target: T7, KRAS G12V (Homo sapiens, UniProt P01116, G12V); assay: HTRF nucleotide exchange assay (NEA), KRAS G12V
T7 construct: 4 nM KRAS; aa1-188 containing the G12V, G12C, G12A or G12S amino acid substitution
Procedure: as §1

T4 sequence (P01116 1-188 isoform P01116-2 G12A): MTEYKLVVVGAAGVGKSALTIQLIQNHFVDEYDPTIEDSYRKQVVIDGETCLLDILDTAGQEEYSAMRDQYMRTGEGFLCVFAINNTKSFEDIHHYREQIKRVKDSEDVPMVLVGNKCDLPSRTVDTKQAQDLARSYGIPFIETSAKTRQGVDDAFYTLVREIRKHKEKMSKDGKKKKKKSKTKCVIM
T2 sequence (P01116 1-188 isoform P01116-2): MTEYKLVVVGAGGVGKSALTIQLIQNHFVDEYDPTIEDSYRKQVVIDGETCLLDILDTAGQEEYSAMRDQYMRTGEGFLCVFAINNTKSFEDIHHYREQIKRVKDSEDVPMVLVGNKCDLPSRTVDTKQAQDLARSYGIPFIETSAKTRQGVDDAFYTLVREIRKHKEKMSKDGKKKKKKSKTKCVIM
T3 sequence (P01116 1-188 isoform P01116-2 G12S): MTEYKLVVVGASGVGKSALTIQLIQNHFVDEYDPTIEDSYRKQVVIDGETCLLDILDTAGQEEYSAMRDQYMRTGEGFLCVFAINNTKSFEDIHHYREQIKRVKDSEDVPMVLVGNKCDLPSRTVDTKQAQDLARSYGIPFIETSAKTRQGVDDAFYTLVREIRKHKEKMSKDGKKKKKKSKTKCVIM
T5 sequence (P01116 1-188 isoform P01116-2 G13D): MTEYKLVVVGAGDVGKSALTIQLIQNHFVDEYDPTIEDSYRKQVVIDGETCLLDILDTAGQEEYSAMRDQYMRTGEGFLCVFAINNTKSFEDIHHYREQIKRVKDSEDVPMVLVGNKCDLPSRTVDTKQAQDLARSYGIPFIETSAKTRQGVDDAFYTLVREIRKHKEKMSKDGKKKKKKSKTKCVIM
T1 sequence (P01116 1-188 isoform P01116-2 G12D): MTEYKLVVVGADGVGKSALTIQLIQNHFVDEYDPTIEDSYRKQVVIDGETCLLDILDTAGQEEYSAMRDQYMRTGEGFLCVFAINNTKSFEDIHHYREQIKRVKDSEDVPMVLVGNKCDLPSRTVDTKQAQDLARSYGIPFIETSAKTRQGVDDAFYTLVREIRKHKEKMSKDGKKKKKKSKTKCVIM
T7 sequence (P01116 1-188 isoform P01116-2 G12V): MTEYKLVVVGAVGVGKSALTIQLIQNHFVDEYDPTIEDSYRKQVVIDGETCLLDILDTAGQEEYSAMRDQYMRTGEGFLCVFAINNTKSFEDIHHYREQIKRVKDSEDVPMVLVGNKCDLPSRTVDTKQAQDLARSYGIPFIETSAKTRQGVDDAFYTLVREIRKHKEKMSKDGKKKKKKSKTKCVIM
T6 sequence (P01116 1-188 isoform P01116-2 G12C): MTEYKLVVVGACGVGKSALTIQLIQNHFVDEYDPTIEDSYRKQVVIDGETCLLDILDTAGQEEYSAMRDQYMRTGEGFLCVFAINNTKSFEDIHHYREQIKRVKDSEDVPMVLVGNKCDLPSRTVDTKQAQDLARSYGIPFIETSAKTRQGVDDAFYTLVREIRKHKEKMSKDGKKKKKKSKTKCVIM

SMILES	IC50 (KRAS G12D)	IC50 (KRAS WT)	IC50 (KRAS G12S)	IC50 (KRAS G12A)	IC50 (KRAS G13D)	IC50 (KRAS G12C)	IC50 (KRAS G12V)
COCC(C)CNc1nc(OCC23CCCN2CCC3)nc2c(F)c(-c3cc(O)cc4ccccc34)ncc12 (stereo not drawn) [Example 31, 4-[8-fluoro-2-(1,2,3,5,6,7-hexahydropyrrolizin-8-ylmethoxy)-4-[(3-methoxy-2-methyl-propyl)amino]pyrido [4,3-d]pyrimidin-7-yl]naphthalen-2-ol]	100 to 10000 nM	100 to 10000 nM	100 to 10000 nM	100 to 10000 nM	> 10000 nM	–	–
Oc1cc(-c2ncc3c(N4CCCC5(COC5)C4)nc(OCC45CCCN4CCC5)nc3c2F)c2ccccc2c1 [Example 52, 4-[8-fluoro-2-(1,2,3,5,6,7-hexahydropyrrolizin-8-ylmethoxy)-4-(2-oxa-8-azaspiro[3.5]nonan-8-yl)pyrido[4,3-d]pyrimidin-7-yl]naphthalen-2-ol]	10 to 100 nM	10 to 100 nM	100 to 10000 nM	10 to 100 nM	–	10 to 100 nM	10 to 100 nM
O=S1(=O)CCN(c2nc(OCC34CCCN3CCC4)nc3c(F)c(-c4cc(O)cc5ccccc45)ncc23)CCN1 [Example 59, 4-[4-(1,1-dioxo-1,2,5-thiadiazepan-5-yl)-8-fluoro-2-(1,2,3,5,6,7-hexahydropyrrolizin-8-ylmethoxy)pyrido [4,3-d]pyrimidin-7-yl]naphthalen-2-ol]	100 to 10000 nM	100 to 10000 nM	100 to 10000 nM	100 to 10000 nM	–	100 to 10000 nM	100 to 10000 nM
[O-][S+]1CCCN(c2nc(OCC34CCCN3CCC4)nc3c(F)c(-c4cc(O)cc5ccccc45)ncc23)CC1 (stereo not drawn) [Example 90, 4-[8-fluoro-2-(1,2,3,5,6,7-hexahydropyrrolizin-8-ylmethoxy)-4-(1-oxo-1,4-thiazepan-4-yl)pyrido[4,3-d]pyrimidin-7-yl]naphthalen-2-ol]	≤ 10 nM	10 to 100 nM	100 to 10000 nM	10 to 100 nM	–	10 to 100 nM	10 to 100 nM

Continued, values first:

IC50 (KRAS G12D)	IC50 (KRAS WT)	IC50 (KRAS G12S)	IC50 (KRAS G12A)	IC50 (KRAS G13D)	IC50 (KRAS G12C)	IC50 (KRAS G12V)	SMILES
100 to 10000 nM	100 to 10000 nM	100 to 10000 nM	100 to 10000 nM	> 10000 nM	–	–	O=S1(=O)CCN(c2nc(OCC34CCCN3CCC4)nc3c(F)c(-c4cc(O)cc5ccccc45)ncc23)CC1 [Example 22, 4-[4-(1,1-dioxo-1,4-thiazinan-4-yl)-8-fluoro-2-(1,2,3,5,6,7-hexahydropyrrolizin-8-ylmethoxy)pyrido[4,3-d]pyrimidin-7-yl]naphthalen-2-ol]
100 to 10000 nM	100 to 10000 nM	100 to 10000 nM	100 to 10000 nM	> 10000 nM	–	–	COC(C)CCNc1nc(OCC23CCCN2CCC3)nc2c(F)c(-c3cc(O)cc4ccccc34)ncc12 (stereo not drawn) [Example 32, 4-[8-fluoro-2-(1,2,3,5,6,7-hexahydropyrrolizin-8-ylmethoxy)-4-(3-methoxybutylamino)pyrido[4,3-d]pyrimidin-7-yl]naphthalen-2-ol]
100 to 10000 nM	100 to 10000 nM	100 to 10000 nM	10 to 100 nM	–	10 to 100 nM	10 to 100 nM	N#CC1CCN(c2nc(OCC34CCCN3CCC4)nc3c(F)c(-c4cc(O)cc5ccccc45)ncc23)CC1 [Example 65, 1-[8-fluoro-2-(1,2,3,5,6,7-hexahydropyrrolizin-8-ylmethoxy)-7-(3-hydroxy-1-naphthyl)pyrido[4,3-d]pyrimidin-4-yl]piperidine-4-carbonitrile]
≤ 10 nM	10 to 100 nM	100 to 10000 nM	10 to 100 nM	–	10 to 100 nM	10 to 100 nM	Oc1cc(-c2ncc3c(N4CCCC(O)CC4)nc(OCC45CCCN4CCC5)nc3c2F)c2ccccc2c1 (stereo not drawn) [Example 70, 1-[8-fluoro-2-(1,2,3,5,6,7-hexahydropyrrolizin-8-ylmethoxy)-7-(3-hydroxy-1-naphthyl)pyrido[4,3-d]pyrimidin-4-yl]azepan-4-ol]
